Source: ChEMBL document CHEMBL5523716, “Discovery of novel EGFR-PROTACs capable of degradation of multiple EGFR-mutated proteins” (Eur J Med Chem, 2024)
Activity calls are given as the source filed them. The calls are words filed in the database; no cut-off is given here.

Tests used:
[1] = Antiproliferative activity against human H1975-TM cells harboring EGFR L858R/T790M/C797S mutant assessed as inhibition of cell growth incubated for 48 to 72 hrs by CCK-8 assay; format: functional, cell-based
[2] = Metabolic stability in dog liver microsomes assessed as elimination rate constant at 1 uM incubated upto 60 mins in presence of NADPH by LC-MS/MS analysis; format: ADME, Canis lupus familiaris, Microsome
[3] = Metabolic stability in human liver microsomes assessed as half-life at 1 uM incubated upto 60 mins in presence of NADPH by LC-MS/MS analysis; format: ADME, Microsome
[4] = Metabolic stability in dog liver microsomes assessed as half-life at 1 uM incubated upto 60 mins in presence of NADPH by LC-MS/MS analysis; format: ADME, Canis lupus familiaris, Microsome
[5] = Metabolic stability in monkey liver microsomes assessed as intrinsic clearance at 1 uM incubated upto 60 mins in presence of NADPH by LC-MS/MS analysis; format: ADME, Macaca mulatta, Microsome; conditions: rhesus monkey, read-out: CLH
[6] = Metabolic stability in rat liver microsomes assessed as intrinsic clearance at 1 uM incubated upto 60 mins in presence of NADPH by LC-MS/MS analysis; format: ADME, Microsome; conditions: read-out: CLH
[7] = Half life in SPF ICR mouse at 2 mg/kg,iv measured upto 24 hrs by LC-MS/MS analysis; format: ADME, organism-based; conditions: in vivo
[8] = Half life in SPF ICR mouse at 5 mg/kg,ip measured upto 24 hrs by LC-MS/MS analysis; format: ADME, organism-based; conditions: in vivo
[9] = Cmax in SPF ICR mouse at 2 mg/kg,iv measured upto 24 hrs by LC-MS/MS analysis; format: ADME, organism-based; conditions: in vivo
[10] = Cmax in SPF ICR mouse at 5 mg/kg,ip measured upto 24 hrs by LC-MS/MS analysis; format: ADME, organism-based; conditions: in vivo
[11] = AUC (0 to infinity) in SPF ICR mouse at 5 mg/kg,ip measured upto 24 hrs by LC-MS/MS analysis; format: ADME, organism-based; conditions: in vivo
[12] = molecular target: von Hippel-Lindau disease tumor suppressor/Epidermal growth factor receptor (Homo sapiens, UniProt P00533+P40337); experiment: PROTAC activity at VHL/EGFR Del19 mutant in human HCC827 cells assessed as induction of EGFR degradation incubated for 72 hrs by Western blot analysis; format: cell-based
[13] = molecular target: von Hippel-Lindau disease tumor suppressor/Epidermal growth factor receptor (Homo sapiens, UniProt P00533+P40337, T790M/L858R); experiment: PROTAC activity at VHL/EGFR L858R/T790M mutant in human NCI-H1975 cells assessed as induction of EGFR degradation incubated for 72 hrs by Western blot analysis; format: cell-based
[14] = system: von Hippel-Lindau disease tumor suppressor/Epidermal growth factor receptor (Homo sapiens), P00533+P40337 [L858R,T790M]; experiment: PROTAC activity at VHL/EGFR L858R/T790M mutant in human NCI-H1975 cells assessed as maximal EGFR degradation at 0.07 to 5 uM incubated for 72 hrs by Western blot analysis relative to control; format: cell-based; conditions: dose 0.07-5 µM
[15] = molecular target: von Hippel-Lindau disease tumor suppressor/Epidermal growth factor receptor (Homo sapiens, UniProt P00533+P40337, T790M/C797S/L858R); experiment: PROTAC activity at VHL/EGFR L858R/T790M/C797S mutant in human H1975-TM cells assessed as induction of EGFR degradation incubated for 48 hrs by Western blot analysis; format: cell-based
[16] = system: von Hippel-Lindau disease tumor suppressor/Epidermal growth factor receptor (Homo sapiens), P00533+P40337 [L858R,T790M,C797S]; experiment: PROTAC activity at VHL/EGFR L858R/T790M/C797S mutant in human H1975-TM cells assessed as maximal EGFR degradation at 0.03 to 2.5 uM incubated for 48 hrs by Western blot analysis relative to control; format: cell-based; conditions: dose 0.03-2.5 µM
[17] = system: von Hippel-Lindau disease tumor suppressor/Epidermal growth factor receptor (Homo sapiens), P00533+P40337 [UNDEFINED MUTATION]; experiment: PROTAC activity at VHL/EGFR Del19 mutant in human HCC827 cells assessed as downregulation of EGFR phosphorylation incubated for 72 hrs by Western blot analysis; format: cell-based
[18] = system: von Hippel-Lindau disease tumor suppressor/Epidermal growth factor receptor (Homo sapiens), P00533+P40337 [UNDEFINED MUTATION]; experiment: PROTAC activity at VHL/EGFR Del19 mutant in human HCC827 cells assessed as downregulation of AKT phosphorylation incubated for 72 hrs by Western blot analysis; format: cell-based
[19] = system: von Hippel-Lindau disease tumor suppressor/Epidermal growth factor receptor (Homo sapiens), P00533+P40337 [L858R,T790M,C797S]; experiment: PROTAC activity at VHL/EGFR L858R/T790M/C797S mutant in human H1975-TM cells assessed as downregulation of AKT phosphorylation incubated for 48 hrs by Western blot analysis; format: cell-based
[20] = system: von Hippel-Lindau disease tumor suppressor/Epidermal growth factor receptor (Homo sapiens), P00533+P40337 [UNDEFINED MUTATION]; experiment: PROTAC activity at VHL/EGFR Del19 mutant in human HCC827 cells assessed as induction of EGFR degradation at 100 nM by Western blot analysis; format: cell-based; conditions: TDE = time-dependent effect
[21] = system: von Hippel-Lindau disease tumor suppressor/Epidermal growth factor receptor (Homo sapiens), P00533+P40337 [L858R,T790M,C797S]; experiment: PROTAC activity at VHL/EGFR L858R/T790M/C797S mutant in human H1975-TM cells assessed as induction of EGFR degradation at 2.5 uM Western blot analysis; format: cell-based; conditions: TDE = time-dependent effect
[22] = system: von Hippel-Lindau disease tumor suppressor/Epidermal growth factor receptor (Homo sapiens), P00533+P40337 [L858R,T790M]; experiment: PROTAC activity at VHL/EGFR L858R/T790M mutant in human NCI-H1975 cells assessed as induction of EGFR degradation at 100 nM preincubated with MG-132 for 6 hrs followed by compound treatment for 48 hrs by Western blot analysis; format: cell-based
[23] = system: von Hippel-Lindau disease tumor suppressor/Epidermal growth factor receptor (Homo sapiens), P00533+P40337 [L858R,T790M,C797S]; experiment: PROTAC activity at VHL/EGFR L858R/T790M/C797S mutant in human H1975-TM cells assessed as induction of EGFR degradation at 100 nM preincubated with MG-132 for 6 hrs followed by compound treatment for 48 hrs by Western blot analysis; format: cell-based
HCC827 [24] = experiment: Antitumor activity against human HCC827 cells xenografted in BALB/c mouse assessed as tumor growth inhibition at 1.25 mg/kg,ip once daily for 28 days relative to control; format: functional; conditions: HCC827, 672 h, time 28 day, read-out: TGI
HCC827 [25] = experiment: Antitumor activity against human HCC827 cells xenografted in BALB/c mouse assessed as tumor growth inhibition at 2.5 mg/kg,ip once daily for 28 days relative to control; format: functional; conditions: HCC827, 672 h, time 28 day, read-out: TGI
[26] = Toxicity in BALB/c mouse xenografted with human HCC827 cells assessed as change in body weight at 1.25 to 5 mg/kg,ip once daily for 28 days; format: organism-based; conditions: in vivo, 672 h, dose 1.25-5 mg/kg, time 28 day
NCI-H1975 = experiment: Antitumor activity against human NCI-H1975 cells xenografted in BALB/c mouse assessed as tumor growth inhibition at 20 mg/kg,ip once daily for 22 days relative to control; format: functional; conditions: NCI-H1975, 528 h, time 22 day, read-out: TGI
H1975-TM [27] = experiment: Antitumor activity against human H1975-TM cells xenografted in BALB/c mouse assessed as downregulation of EGFR phosphorylation in tumor at 5 to 20 mg/kg,ip once daily for 14 days by Western blot analysis; format: functional, organism-based; conditions: dose 5-20 mg/kg, time 14.0 day
H1975-TM [28] = experiment: Antitumor activity against human H1975-TM cells xenografted in BALB/c mouse assessed as downregulation of ERK phosphorylation in tumor at 5 to 20 mg/kg,ip once daily for 14 days by Western blot analysis; format: functional, organism-based; conditions: dose 5-20 mg/kg, time 14.0 day

**Q.** Which IC50 [1] does the source give for `CCN(CC)C/C=C/C(=O)Nc1cc2c(Nc3ccc(F)c(Cl)c3)ncnc2cc1OCc1cn(CCCCCCCC(=O)N[C@H](C(=O)N2C[C@H](O)C[C@H]2C(=O)N[C@H](C)c2ccc(-c3scnc3C)cc2)C(C)(C)C)nn1` here?
**A.** 3.24 µM

**Q.** What about the k el at 1 h, 1 µM [2] of the same compound?
**A.** 0.00015 s⁻¹

**Q.** And the half-life at 1 µM [3]?
**A.** 0.275 h

**Q.** What about the half-life at 1 µM [4] of the same compound?
**A.** 1.3 h

**Q.** And the microsomal CLint at 1 µM [5]?
**A.** 36.6 µL/min/mg

**Q.** And the microsomal CLint at 1 µM [6]?
**A.** 7.4 µL/min/mg

**Q.** And the half-life [7]?
**A.** 1.67 h

**Q.** And the half-life [8]?
**A.** 0.96 h

**Q.** And the Cmax [9]?
**A.** 7.83 µg/mL

**Q.** And the Cmax [10]?
**A.** 0.656 µg/mL

**Q.** What about the AUC(0-inf) [11] of the same compound?
**A.** 2.83 µg·h/mL

**Q.** What about the DC50 [12] of the same compound?
**A.** 0.0179 µM

**Q.** And the DC50 [13]?
**A.** 0.25 µM

**Q.** And the Emax [14]?
**A.** 94%

**Q.** What about the DC50 [15] of the same compound?
**A.** 0.63 µM

**Q.** What about the Emax [16] of the same compound?
**A.** 94%

**Q.** What about the Activity [17] of the same compound?
**A.** Dose-Dependent Effect

**Q.** What about the Activity [18] of the same compound?
**A.** Dose-Dependent Effect

**Q.** And the Activity [19]?
**A.** Dose-Dependent Effect

**Q.** What about the Activity [20] of the same compound?
**A.** Tde

**Q.** And the Activity [21]?
**A.** Tde

**Q.** And the Activity [22]?
**A.** inactive

**Q.** What about the Activity [23] of the same compound?
**A.** inactive

**Q.** And the inhibition in vivo at 1.25 mg/kg (HCC827 [24])?
**A.** 41%

**Q.** And the inhibition in vivo at 2.5 mg/kg (HCC827 [25])?
**A.** 67%

**Q.** What about the Activity [26] of the same compound?
**A.** Non-Toxic

**Q.** What about the inhibition in vivo at 20 mg/kg (NCI-H1975) of the same compound?
**A.** 85%

**Q.** What about the Activity (H1975-TM [27]) of the same compound?
**A.** Active

**Q.** What about the Activity (H1975-TM [28]) of the same compound?
**A.** Active
